Results taken from patent EP4603105A1, “PHARMACEUTICAL COMPOSITION CONTAINING CYCLIC COMPOUND HAVING SELECTIVE KRAS INHIBITORY EFFECT AGAINST HRAS AND NRAS” (CHUGAI SEIYAKU KABUSHIKI KAISHA, priority 2022, dated 2024).
Where two headings read alike, the source gives them in different places.

Legend:
[1] = molecular target: HRAS wild-type protein (Homo sapiens, UniProt P01112); assay: Binding to HRAS by surface plasmon resonance (SPR), KD and KD ratio to KRAS
Method in brief: (§1)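 Single-cycle kinetics on GDP-loaded biotin-Avi RAS captured to ~100–300 RU; 75 s ascending injections, 100 µL/min, 30°C. HBS pH 7.4 + 10 mM MgCl2/10 µM GDP/4% DMSO. 1:1 fit, KD.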

[2] = system: human lung cancer strain NCI-H441; assay: NCI-H441 cell proliferation inhibitory activity (CellTiter-Glo, 4 days); assay type: cell-based; conditions: read-out: NCl-H441 IC50
Method in brief: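 Proliferation was scored by […] measured after the reagent was added to cultures kept at 37°C in 5% carbon dioxide.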

[3] = molecular target: GDP-bound KRAS wild-type protein (Homo sapiens, UniProt P01116); assay: Binding to KRAS by surface plasmon resonance (SPR), dissociation constant KD
Chain of GDP-bound KRAS wild-type protein (P01116 1-188 isoform P01116-2): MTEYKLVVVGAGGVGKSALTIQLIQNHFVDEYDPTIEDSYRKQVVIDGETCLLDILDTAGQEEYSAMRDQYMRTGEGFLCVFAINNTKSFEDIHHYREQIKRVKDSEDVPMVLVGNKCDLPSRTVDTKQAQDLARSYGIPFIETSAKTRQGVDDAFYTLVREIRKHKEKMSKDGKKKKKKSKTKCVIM
Method in brief: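 Captured GDP-RAS (~100–300 RU) was exposed to increasing compound concentrations, 75 s per step, in running buffer with 10 µM GDP, 10 mM MgCl2 and 4% DMSO at pH 7.4.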

[4] = molecular target: GDP-bound NRAS wild-type protein (Homo sapiens, UniProt P01111); assay: Binding to NRAS by surface plasmon resonance (SPR), KD and KD ratio to KRAS
Chain of GDP-bound NRAS wild-type protein (P01111 whole entry): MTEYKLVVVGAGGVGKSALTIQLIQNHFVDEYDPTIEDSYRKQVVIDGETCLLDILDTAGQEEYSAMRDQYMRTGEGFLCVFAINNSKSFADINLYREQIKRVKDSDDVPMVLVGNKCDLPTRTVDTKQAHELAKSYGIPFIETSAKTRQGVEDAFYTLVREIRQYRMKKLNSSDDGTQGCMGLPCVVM
Method in brief: as §1

[5] = ratio of KD for HRAS wild-type protein to KD for KRAS
[6] = ratio of KD for GDP-bound NRAS wild-type protein to KD for KRAS
[7] = ratio of KD with respect to HRAS wild-type protein to KD with respect to KRAS
[8] = 50% proliferation inhibitory concentration, four days
[9] = Single Cycle Kinetics, 1:1 binding model
[10] = ratio of KD with respect to GDP-bound NRAS wild-type protein to KD with respect to KRAS

Chain of HRAS wild-type protein (P01112 whole entry): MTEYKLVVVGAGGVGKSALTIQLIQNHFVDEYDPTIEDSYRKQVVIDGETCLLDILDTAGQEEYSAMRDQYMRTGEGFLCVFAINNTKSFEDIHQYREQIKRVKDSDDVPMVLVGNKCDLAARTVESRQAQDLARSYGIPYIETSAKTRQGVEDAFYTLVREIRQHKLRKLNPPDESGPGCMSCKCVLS

IC50 ([2]; NCI-H441 cells, 4 days)	Kd ([3]; 1:1 binding model)	IC50 [2, 8]	Kd [3, 9]	Kd ([3]; Single Cycle Kinetics)	Compound	HRAS /KRAS [1, 5]	NRAS /KRAS [4, 6]	HRAS /KRAS [1, 7]	NRAS /KRAS [4, 10]
207 nM	4.6 nM	–	–	–	CCC[C@H]1C(=O)N[C@@H](CC(C)C)C(=O)N(CC)CC(=O)N(C)[C@H]2C/C=C\CCN(C2=O)[C@@H](Cc2ccc(C)cc2)C(=O)N(C)CC(=O)N[C@@H](CCc2ccc(C(F)(F)F)c(Cl)c2)C(=O)N2C[C@H](OCC)C[C@H]2C(=O)NC2(CC(C)(C)C2)C(=O)N(C)[C@@H](C2CCCC2)C(=O)N(C)[C@H](C(=O)N(C)C)CC(=O)N1C [PP2528]	B (a compound having 3 or more and less than 10 is denoted as B)	A (a compound having 10 or more and less than 20 is denoted as A)	–	–
8.5 nM	0.17 nM	–	–	–	CCC[C@H]1C(=O)N[C@@H]([C@@H](C)CC)C(=O)N(C)CC(=O)N(C)[C@H]2C/C=C\CCN(C2=O)[C@@H](Cc2ccc(C(F)(F)F)cc2)C(=O)N(C)CC(=O)N[C@@H](CCc2ccc(Cl)c(Cl)c2)C(=O)N2C[C@H](OCC)C[C@H]2C(=O)NC2(CC(C)(C)C2)C(=O)N(C)[C@@H](CC(C)(C)C)C(=O)N(C)[C@H](C(=O)N(C)C)CC(=O)N1C [PP2738]	A (a compound having 10 or more and less than 20 is denoted as A)	AA (a compound having 20 or more is denoted as AA)	–	–
–	–	17.8 nM	0.48 nM	–	CCO[C@@H]1C[C@H]2C(=O)NC3(CCC3)C(=O)N(C)[C@@H](C(CC)CC)C(=O)N(C)[C@H](C(=O)N(C)C)CC(=O)N(C)[C@@H](CC(C)C)C(=O)N[C@@H]([C@@H](C)CC)C(=O)N(C)CC(=O)N(C)[C@H]3C/C=C\CCN(C3=O)[C@@H](Cc3ccc(C(F)(F)F)cc3)C(=O)N(C)CC(=O)N[C@@H](CCc3ccc(Cl)c(Cl)c3)C(=O)N2C1 [PP1217]	–	–	A (a compound having 10 or more and less than 20 is denoted as A)	AA (a compound having 20 or more is denoted as AA)
196 nM	–	–	–	5 nM	C#CC[C@H]1C(=O)N[C@@H]([C@@H](C)CC)C(=O)N2CCCCC[C@H]2C(=O)N(C)[C@H]2C/C=C\CCN(C2=O)[C@@H](Cc2ccc(C)cc2)C(=O)N(C)CC(=O)N[C@@H](CCc2ccc(C(F)(F)F)c(OC)c2)C(=O)N2C[C@H](OCC)C[C@H]2C(=O)N(C)C2(CCC2)C(=O)N(C)[C@@H](C2CCCC2)C(=O)N(C)[C@H](C(=O)N(C)C)CC(=O)N1C [PP3267]	B (a compound having 3 or more and less than 10 is denoted as B)	A (a compound having 10 or more and less than 20 is denoted as A)	–	–
–	–	26.3 nM	0.16 nM	–	CCO[C@@H]1C[C@H]2C(=O)NC3(CCC3)C(=O)N(C)[C@@H](C3CCCC3)C(=O)N(C)[C@H](C(=O)N3CCOCC3)CC(=O)N(C)[C@@H](CC3CC3)C(=O)N[C@@H]([C@@H](C)CC)C(=O)N(C)CC(=O)N(C)[C@H]3CCCCCN(C3=O)[C@@H](Cc3ccc(F)cc3)C(=O)N(C)CC(=O)N[C@@H](CCc3cc(F)c(C(F)(F)F)c(F)c3)C(=O)N2C1 [PP1178]	–	–	B (a compound having 3 or more and less than 10 is denoted as B)	B (a compound having 3 or more and less than 10 is denoted as B)
14.5 nM	–	–	–	0.19 nM	CCO[C@@H]1C[C@H]2C(=O)NC3(CC(C)(C)C3)C(=O)N(C)[C@@H](C3CCCC3)C(=O)N(C)[C@H](C(=O)N(C)C)CC(=O)N[C@@H](CC(C)C)C(=O)N[C@@H]([C@@H](C)CC)C(=O)N(C)CC(=O)N(C)[C@H]3C/C=C\CCN(C3=O)[C@@H](Cc3ccc(C(F)(F)F)cc3)C(=O)N(C)CC(=O)N[C@@H](CCc3ccc(C(F)(F)F)c(Cl)c3)C(=O)N2C1 [PP3452]	A (a compound having 10 or more and less than 20 is denoted as A)	A (a compound having 10 or more and less than 20 is denoted as A)	–	–
58.3 nM	–	–	–	0.86 nM	C=C(C)C[C@H]1C(=O)N(C)[C@H](C(=O)N(C)C)CC(=O)N(C)[C@@H](CC(C)C)C(=O)N[C@@H]([C@@H](C)CC)C(=O)N(C)CC(=O)N(C)[C@H]2C/C=C\CCN(C2=O)[C@@H](Cc2ccc(C)cc2)C(=O)N(C)CC(=O)N[C@@H](CCc2ccc(C(F)(F)F)c(OC)c2)C(=O)N2C[C@H](OCC)C[C@H]2C(=O)N(C)C2(CCC2)C(=O)N1C [PP3345]	A (a compound having 10 or more and less than 20 is denoted as A)	A (a compound having 10 or more and less than 20 is denoted as A)	–	–
–	–	140 nM	0.49 nM	–	CCO[C@@H]1C[C@H]2C(=O)NC3(CCC3)C(=O)N(C)[C@@H](C3CCCC3)C(=O)N(C)[C@H](C(=O)N(C)C)CC(=O)N(C)[C@@H](CC3CC3)C(=O)N[C@@H]([C@@H](C)CC)C(=O)N(C)CC(=O)N(C)[C@H]3C/C=C\CCN(C3=O)[C@@H](Cc3ccc(F)cc3)C(=O)N(C)CC(=O)N[C@@H](CCc3cc(F)c(Cl)c(F)c3)C(=O)N2C1 [PP1479]	–	–	B (a compound having 3 or more and less than 10 is denoted as B)	A (a compound having 10 or more and less than 20 is denoted as A)
79.7 nM	0.97 nM	–	–	–	CCC(CC)[C@H]1C(=O)N(C)[C@H](C(=O)N(C)C)CC(=O)N(C)[C@@H](COC)C(=O)N[C@@H]([C@@H](C)CC)C(=O)N(C)CC(=O)N(C)[C@H]2C/C=C\CCN(C2=O)[C@@H](CC2CCC(F)(F)CC2)C(=O)N(C)CC(=O)N[C@@H](CCc2ccc(C(F)(F)F)c(OC)c2)C(=O)N2C[C@@H](C)C[C@H]2C(=O)NC2(CC(C)(C)C2)C(=O)N1C [PP2442]	A (a compound having 10 or more and less than 20 is denoted as A)	A (a compound having 10 or more and less than 20 is denoted as A)	–	–
18.7 nM	–	–	–	1.1 nM	CCO[C@@H]1C[C@H]2C(=O)OC3(CCC3)C(=O)N(C)[C@@H](C3CCCC3)C(=O)N(C)[C@H](C(=O)N(C)C)CC(=O)N(C)[C@@H](CC(C)C)C(=O)N[C@@H]([C@@H](C)CC)C(=O)N(C3CC3)CC(=O)N(C)[C@H]3C/C=C\CCN(C3=O)[C@@H](Cc3ccc(C)cc3)C(=O)N(C)CC(=O)N[C@@H](CCc3ccc(C(F)(F)F)c(OC)c3)C(=O)N2C1 [PP3381]	A (a compound having 10 or more and less than 20 is denoted as A)	A (a compound having 10 or more and less than 20 is denoted as A)	–	–
–	–	18.4 nM	0.032 nM	–	CC[C@H](C)[C@@H]1NC(=O)[C@H](CC(C)C)N(C)C(=O)C[C@@H](C(=O)N2CCOCC2)N(C)C(=O)[C@H](C2CCCC2)N(C)C(=O)C2(CCC2)NC(=O)[C@@H]2C[C@@H](OCC(C)C)CN2C(=O)[C@H](CCc2cc(F)c(C(F)(F)F)c(F)c2)NC(=O)CN(C)C(=O)[C@H](Cc2ccc(C(F)(F)F)cc2)N2CCCC[C@@H](C2=O)N(C)C(=O)CN(C)C1=O [PP1160]	–	–	B (a compound having 3 or more and less than 10 is denoted as B)	B (a compound having 3 or more and less than 10 is denoted as B)
30.7 nM	–	–	–	0.71 nM	CCCOC[C@H]1C(=O)N[C@@H]([C@@H](C)OCCC)C(=O)N(CCC)CC(=O)N(C)[C@H]2C/C=C\CCN(C2=O)[C@@H](Cc2ccc(C(F)F)cc2)C(=O)N(C)CC(=O)N[C@@H](CCc2cc(F)c(C(F)(F)F)c(F)c2)C(=O)N2C[C@H](OC(C)C)C[C@H]2C(=O)N(C)C2(CCC2)C(=O)N(C)[C@@H](C(CC)CC)C(=O)N(C)[C@H](C(=O)N(C)C)CC(=O)N1C [PP3488]	A (a compound having 10 or more and less than 20 is denoted as A)	A (a compound having 10 or more and less than 20 is denoted as A)	–	–
9.4 nM	–	–	–	0.41 nM	CCC[C@H]1C(=O)N[C@@H]([C@@H](C)CC)C(=O)N2CCC[C@H]2C(=O)N(C)[C@H]2C/C(F)=C\CCN(C2=O)[C@@H](Cc2ccc(C(F)(F)F)cc2)C(=O)N(C)CC(=O)N[C@@H](CCc2ccc(C(F)(F)F)c(OC)c2)C(=O)N2C[C@H](OCC)C[C@H]2C(=O)N(C)C2(CCC2)C(=O)N(C)[C@@H](C2CCCC2)C(=O)N(C)[C@H](C(=O)N(C)C)CC(=O)N1C [PP3509]	B (a compound having 3 or more and less than 10 is denoted as B)	B (a compound having 3 or more and less than 10 is denoted as B)	–	–
17 nM	–	–	–	0.28 nM	CCO[C@@H]1C[C@H]2C(=O)NC3(CCC3)C(=O)N(C)[C@@H](C3CCCC3)C(=O)N(C)[C@H](C(=O)N(C)C)CC(=O)N(C)[C@@H](CC(C)C)C(=O)N[C@@H]([C@@H](C)CC)C(=O)N(C)CC(=O)N(C)[C@H]3C/C(F)=C\CCN(C3=O)[C@@H](Cc3ccc(C)cc3)C(=O)N(C)CC(=O)N[C@@H](CCc3cc(F)c(C(F)(F)F)c(F)c3)C(=O)N2C1 [PP3515]	B (a compound having 3 or more and less than 10 is denoted as B)	B (a compound having 3 or more and less than 10 is denoted as B)	–	–
21.9 nM	0.67 nM	–	–	–	CCC[C@H]1C(=O)N[C@@H]([C@@H](C)CC)C(=O)N(C)CC(=O)N(C)[C@H]2C/C=C\CCN(C2=O)[C@@H](CC2CCC(F)(F)CC2)C(=O)N(C)CC(=O)N[C@@H](CCc2ccc(C(F)(F)F)c(Cl)c2)C(=O)N2C[C@H](OCC)C[C@H]2C(=O)NC2(CC(C)(C)C2)C(=O)N(C)[C@@H](C(CC)CC)C(=O)N(C)[C@H](C(=O)N(C)C)CC(=O)N1C [PP2498]	A (a compound having 10 or more and less than 20 is denoted as A)	A (a compound having 10 or more and less than 20 is denoted as A)	–	–
